Experimental data published in patent US10906880B2, “Kind of isothiazole oxime ether-containing strobilurin derivatives and its preparation methods and application” (priority 2016, dated 2021).
“And” between values parts separate entries of the source, which are not always exact repeats. Equal entries are not always repeated. Where two headings read alike, the source gives them in different places.

What was measured:
TMV [1] = assay: Anti-TMV activity on tobacco, curative mode; type: in vivo, tobacco mosaic virus; settings: 100 μg/mL, tobacco; for inhibition at 100 µg/mL: Tobacco mosaic virus, read-out: Anti-TMV activity inhibition, Curative effect
Gibberella zeae = assay: microbe, parasite or virus in culture; type: cell-based; settings: for inhibition at 50 µg/mL: Fusarium graminearum, read-out: Fungicidal activity inhibition, GZ, 50 μg/mL, G. zeae
TMV [2] = assay: Anti-TMV activity on tobacco, induction mode (systemic acquired resistance); type: in vivo, tobacco mosaic virus; settings: 100 μg/mL; for inhibition at 100 µg/mL: Tobacco mosaic virus, read-out: Anti-TMV activity inhibition, Induction effect
TMV [3] = assay: Anti-TMV activity on tobacco, protection mode; type: in vivo, tobacco mosaic virus; settings: 100 μg/mL; for inhibition at 100 µg/mL: Tobacco mosaic virus, read-out: Anti-TMV activity inhibition, Protection effect
TMV [4] = assay: Anti-TMV activity on tobacco, inactivation mode; type: in vivo, tobacco mosaic virus; settings: 100 μg/mL; for inhibition at 100 µg/mL: Tobacco mosaic virus, read-out: Anti-TMV activity inhibition, Inactivation effect
Botrytis cinerea = assay: Fungicide activity, mycelial growth inhibition on PDA plate; type: cell-based; settings: Botrytis cinerea, read-out: Fungicidal activity inhibition, BC
Cercospora arachidicola = assay: as above; type: cell-based; settings: Mycosphaerella arachidis, read-out: Fungicidal activity inhibition, CA
Physalospora piricola = assay: as above; type: cell-based; settings: 50 μg/mL, P. piricola; read-out: Fungicidal activity inhibition, PP
[5] = tested on: Phytophthora infestans (Mont) de Bary; assay: microbe, parasite or virus in culture; type: cell-based; settings: Phytophthora infestans, read-out: Fungicidal activity inhibition, PI, 50 μg/mL, P. infestans (Mont.) de Bary
Rhizoctonia cerealis = assay: Fungicide activity, mycelial growth inhibition on PDA plate; type: cell-based; settings: Ceratobasidium cereale, read-out: Fungicidal activity inhibition, RC
Pellicularia sasakii = assay: as above; type: cell-based; settings: 50 μg/mL, P. sasakii; read-out: Fungicidal activity inhibition, PS
Alternaria solani = assay: as above; type: cell-based; settings: Alternaria solani, read-out: Fungicidal activity inhibition, AS
Sclerotinia sclerotiorum = assay: Fungicide activity, mycelial growth inhibition on PDA plate; type: cell-based; settings: Sclerotinia sclerotiorum, read-out: Fungicidal activity inhibition, SS

SMILES	inhibition at 100 µg/mL (TMV [1]) [%]	inhibition at 100 µg/mL (TMV [2]) [%]	inhibition at 100 µg/mL (TMV [3]) [%]	inhibition at 100 µg/mL (TMV [4]) [%]	inhibition at 50 µg/mL (Botrytis cinerea; 50 μg/mL, B. cinerea) [%]	inhibition at 50 µg/mL (Cercospora arachidicola; 50 μg/mL, C. arachidicola) [%]	inhibition at 50 µg/mL (Physalospora piricola) [%]	inhibition at 50 µg/mL [5] [%]	inhibition at 50 µg/mL (Rhizoctonia cerealis; 50 μg/mL, R. cerealis) [%]	inhibition at 50 µg/mL (Rhizoctonia cerealis) [%]	inhibition at 50 µg/mL (Pellicularia sasakii) [%]	inhibition at 50 µg/mL (Gibberella zeae) [%]	inhibition at 50 µg/mL (Alternaria solani; 50 μg/mL, A. solani) [%]	melting point [°C]	inhibition at 50 µg/mL (Sclerotinia sclerotiorum; 50 μg/mL, S. sclerotiorum) [%]	inhibition at 50 µg/mL (Sclerotinia sclerotiorum) [%]	also measured
CNC(=O)/C(=N/OC)c1cc(C)c(C)cc1CO/N=C(\C)c1cc(Cl)ns1 [CL04-00, reference compound]	27.3 ± 1.24	20.3 ± 2.16	26.3 ± 2.47	20.7 ± 2.1													Anti-TMV activity inhibition, Curative effect (TMV [1]): 26.39 ± 1.22%; Fungicidal activity inhibition, GZ (Gibberella zeae; 50 μg/mL, G. zeae): 29.63% and 50.00%; Anti-TMV activity inhibition, Induction effect (TMV [2]): 19.34 ± 1.14%; Anti-TMV activity inhibition, Protection effect (TMV [3]): 25.30 ± 1.47%; Anti-TMV activity inhibition, Inactivation effect (TMV [4]): 19.68 ± 1.10%
CO/N=C(/C(=O)NCC(F)F)c1ccccc1CO/N=C(\N)c1snc(Cl)c1Cl [CL04-24]	15 ± 3.08	> 30	36.8 ± 5.5	27.3 ± 6.56	37.5	16.7	39.5	22.9	62	> 50	24.2	> 30	12.7	118 to 120	52.9		
CO/N=C(/C(=O)NC(C)(C)CSC)c1ccccc1CO/N=C(\N)c1snc(Cl)c1Cl [CL04-25D]	> 30	21.1 ± 3.69	21.1 ± 1.69	0	39.3	12.5	27.7	17.1	62		15.2	21.2	16.4	28 to 30	52.9	> 40	
CO/N=C(/C(=O)N[C@@H](C)CSC)c1ccccc1CO/N=C(\N)c1snc(Cl)c1Cl [CL04-25E]	19.1 ± 6.56	16 ± 7.71	26 ± 4.71	0	35.7	16.7	10.9	11.4	54	> 50	21.2	> 30	9.09		52.9	> 40	
CO/N=C(/C(=O)NCC(F)F)c1ccccc1CO/N=C(C)/C=C/c1snc(Cl)c1Cl [CL04-32A]	1.52 ± 0.62	> 30	> 40	> 30	52.6	36	29.8		85.4	> 50	35.1	> 30	34.4	98 to 100	53.3	> 40	inhibition at 50 µg/mL (Botrytis cinerea): > 45%; inhibition at 50 µg/mL (Cercospora arachidicola): > 30%; inhibition at 50 µg/mL (Alternaria solani): > 30%
CO/N=C(/C(=O)NC(C)(C)CSC)c1ccccc1CO/N=C(C)/C=C/c1snc(Cl)c1Cl [CL04-32E]	1.52 ± 0.62	> 70	> 40	13.7 ± 0.55	32.1	12.5	39.5	11.4	58		15.2	24.2	5.45		41.2		
